Laboratory results: patent publication US10533201B2, “Enzymatic transphosphorylation of sugar substrates” (priority 2014, dated 2020)
Where two headings read alike, the source gives them in different places.

Experiments:
Assay type in all cases: biochemical
glucose-1-phosphatase = glucose-1-phosphatase (Escherichia coli, UniProt P19926, D396N/Q163K/Y105D); settings: 20 mM αGlc 1-P and 200 mM acceptor
Procedure: FIG. 10: Acceptor substrates phosphorylated by glucose-1-phosphatase. […] Product yields were determined at conversions >90% except for N-acetyl D-glucosamine (GlcNAc) 38%, D-glucosamine (D-GlcN) 81%, D-xylose (D-Xyl) 69%, L-Arabinose (L-Ara) 86%, D-Xylitol (D-Xol) 89% and L-Fucose (L-Fuc) 75%, respectively. All acceptors are phosphorylated at the C1-OH position except for (*) D-glucosamine where the predominant product was phosphorylated at the C6-OH. Light grey bars indicate rS/rP ratio, while the dark grey bars indicate the product yield.
Product yields were determined at conversions >90% except for N-acetyl D-glucosamine (GlcNAc) 38%, D-glucosamine (D-GlcN) 81%, D-xylose (D-Xyl) 69%, L-Arabinose (L-Ara) 86%, D-Xylitol (D-Xol) 89% and L-Fucose (L-Fuc) 75%, respectively. All acceptors are phosphorylated at the C1-OH position except for (*) D-glucosamine where the predominant product was phosphorylated at the C6-OH. Light grey bars indicate rS/rP ratio, while the dark grey bars indicate the product yield.

αGlc 1-P phosphatase [1] = molecular target: T1, αGlc 1-P phosphatase (Escherichia coli, UniProt P19926, D396N/Q163K/Y105D); settings: 20 mM substrate; for hydrolysis by αGlc 1-P phosphatase (in words): pyrophosphate and phytate at pH 7.0 and pH 4.5
T1 construct: Strep-tag (N); made in house; host or cells: E. coli Origami B (DE3), cytoplasmic, pMS470_dsbC vector (DsbC co-expressed)
T1 sequence (P19926 other isoform, or with tags, fused parts or gaps Y105D/Q163K/D396N): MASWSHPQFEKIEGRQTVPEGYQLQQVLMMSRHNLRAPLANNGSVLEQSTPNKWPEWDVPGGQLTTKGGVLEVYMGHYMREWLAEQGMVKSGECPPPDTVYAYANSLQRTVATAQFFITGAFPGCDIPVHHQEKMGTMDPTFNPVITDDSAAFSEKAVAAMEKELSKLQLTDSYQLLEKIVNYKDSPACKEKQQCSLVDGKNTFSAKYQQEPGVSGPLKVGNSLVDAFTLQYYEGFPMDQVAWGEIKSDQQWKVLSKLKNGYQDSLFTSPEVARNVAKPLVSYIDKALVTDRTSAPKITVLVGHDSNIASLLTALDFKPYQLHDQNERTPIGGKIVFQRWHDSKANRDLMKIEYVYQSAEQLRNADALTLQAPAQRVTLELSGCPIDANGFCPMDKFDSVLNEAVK
Procedure: Inorganic phosphate was determined colorimetrically at 850 nm (56).
Hydrolysis reactions were carried out at an initial substrate concentration of 20 mM. […] Samples were taken in 15 min intervals, heat-treated (99° C., 5 min), and centrifuged at 20,000 g for 5 min. The release of phosphate was measured, and the initial rate V (mM min^−1) was determined from the linear relationship between phosphate concentration and time. […] (2)
A series of phosphorylated sugars were tested as substrates for hydrolysis by phosphatase.

αGlc 1-P phosphatase [2] = molecular target: T1, αGlc 1-P phosphatase; settings: for Fru 1-P kcat_app (formation) / Fru 6-P kcat_app (formation) / Glc 6-P kcat_app (formation) / Glc 1-P kcat_app (consumption) / Phosphate kcat_app (release): pH 7.0, 37° C.
Procedure: Fru 6-P was measured using an assay with mannitol 1-phosphate dehydrogenase (52). […] (1)
Fru (100, 200, 400 or 600 mM) or Glc (200 mM) was used as the acceptor substrate. […] Sampling was done to allow for determination of initial rates, but the full reaction time course was also recorded. Relevant kcat_app values for substrate consumption, phosphate release, and phosphoryl transfer were obtained from the corresponding V values using equation 2. Internal consistency of the data was always checked by mass balance. pH dependence of phosphoryl transfer. […] A 50 mM Mes buffer was used, except at pH ≤6.0 where 50 mM Mes and 20 mM sodium acetate were used, and at pH 8.0 where 50 mM Mes and 50 mM Tes were used. Buffer pH values were adjusted at 37° C. and controlled before and after recording each enzyme-catalyzed reaction. Sampling and analyses were as described above.
For data analysis by non-linear least-squares regression, SigmaPlot 2004 version 9.0 was used. Equation 3 describes a pH dependence where activity (expressed as logarithmic kcat_app) is constant at low pH and decreases above pKB. C is the pH-independent value of kcat_app at the optimum state of protonation, K is the proton dissociation constant and [H^+] is the proton concentration. log(kcat_app)=log(C/(1+K/[H^+])) (3) High Performance Anion Exchange Chromatography with Pulsed Amperometric Detection (HPAEC-PAD).
Selected samples were analyzed on a Dionex BioLC system (Dionex Corporation, Sunnyvale, USA) equipped with a CarboPac PA10 column (4×250 mm) and an Amino Trap guard column (4×50 mm) thermostated at 30° C. […] Elution was carried out at a flow rate of 0.9 mL/min with the following method: isocratic flow of 52 mM NaOH for 20 min, followed by a linear gradient from 100 mM NaOAc to 400 mM NaOAc, applied within 25 min in an isocratic background of 100 mM NaOH. The column was washed for 5 min with 52 mM NaOH.

[3] = 0.1 μM enzyme, 37° C., 50 mM Mes pH 7.0, n.d. = no activity above assay detection limit
[4] = 200 mM Glc acceptor, 20 mM αGlc 1-P
[5] = 200 mM Glc acceptor, 20 mM αGlc 1-P, pH 7.0

glucose-1-phosphatase, sequence (P19926 other isoform, or with tags, fused parts or gaps Y105D/Q163K/D396N): as above

## O=C[C@H](O)[C@@H](O)[C@H](O)[C@H](O)C(=O)O [D-Glucuronic acid]
glucose-1-phosphatase
  phosphorylation of acceptor by glucose-1-phosphatase (in words): not phosphorylated

## N[C@H]1C(O)O[C@H](CO)[C@H](O)[C@@H]1O (stereo partly drawn) [D-galactosamine]
glucose-1-phosphatase
  phosphorylation of acceptor by glucose-1-phosphatase (in words): not phosphorylated

## O=C(COP(=O)(O)O)[C@@H](O)[C@H](O)[C@H](O)CO [Fru 1-P, D-fructose 1-phosphate]
αGlc 1-P phosphatase [1]; [3]
  αGlc 1-P phosphatase kcat_app, hydrolysis: 22 s⁻¹
αGlc 1-P phosphatase [2]; Fru 100 mM, 20 mM αGlc 1-P
  Fru 1-P kcat_app (formation): 39 s⁻¹
αGlc 1-P phosphatase [2]; Fru 200 mM, 20 mM αGlc 1-P
  Fru 1-P kcat_app (formation): 88 s⁻¹
αGlc 1-P phosphatase [2]; Fru 400 mM, 20 mM αGlc 1-P
  Fru 1-P kcat_app (formation): 111^a s^−1
αGlc 1-P phosphatase [2]; Fru 600 mM, 20 mM αGlc 1-P
  Fru 1-P kcat_app (formation): 135 s⁻¹

## O=C(CO)[C@@H](O)[C@H](O)[C@H](O)COP(=O)(O)O [Fru 6-P, D-fructose-6-phosphate]
αGlc 1-P phosphatase [1]; [3]
  αGlc 1-P phosphatase kcat_app, hydrolysis: 22^a s^−1
αGlc 1-P phosphatase [2]; Fru 100 mM, 20 mM αGlc 1-P
  Fru 6-P kcat_app (formation): 11^b s^−1
αGlc 1-P phosphatase [2]; Fru 200 mM, 20 mM αGlc 1-P
  Fru 6-P kcat_app (formation): 20^ s^−1
αGlc 1-P phosphatase [2]; Fru 400 mM, 20 mM αGlc 1-P
  Fru 6-P kcat_app (formation): 28^ s^−1
αGlc 1-P phosphatase [2]; Fru 600 mM, 20 mM αGlc 1-P
  Fru 6-P kcat_app (formation): 36^c s^−1

## O=C[C@H](O)[C@@H](O)[C@H](O)[C@H](O)COP(=O)(O)O [Glc 6-P, D-glucose-6-phosphate]
αGlc 1-P phosphatase [1]; [3]
  αGlc 1-P phosphatase kcat_app, hydrolysis: 56 s⁻¹
αGlc 1-P phosphatase [2]; [4]
  kcat_app ratio for formation of Glc 6-P and phosphate: 8.5
αGlc 1-P phosphatase [2]; [5]
  kcat_app for Glc 6-P synthesis: 34 s⁻¹
αGlc 1-P phosphatase [2]; Fru 100 mM, 20 mM αGlc 1-P
  Glc 6-P kcat_app (formation): 5 s⁻¹
αGlc 1-P phosphatase [2]; Fru 200 mM, 20 mM αGlc 1-P
  Glc 6-P kcat_app (formation): 6 s⁻¹
αGlc 1-P phosphatase [2]; Fru 400 mM, 20 mM αGlc 1-P
  Glc 6-P kcat_app (formation): 4 s⁻¹
αGlc 1-P phosphatase [2]; Fru 600 mM, 20 mM αGlc 1-P
  Glc 6-P kcat_app (formation): 5 s⁻¹

## O=P(O)(O)O[C@H]1[C@H](OP(=O)(O)O)[C@@H](OP(=O)(O)O)[C@H](OP(=O)(O)O)[C@@H](OP(=O)(O)O)[C@H]1OP(=O)(O)O [Phytate, myo-inositol hexakisphosphate]
αGlc 1-P phosphatase [1]
  hydrolysis by αGlc 1-P phosphatase (in words): weakly active
αGlc 1-P phosphatase [1]; reactions at pH 7.0 and pH 4.5 (50 mM sodium acetate), phytate active only at pH 4.5, n.d. = no activity above detection limit
  αGlc 1-P phosphatase kcat_app, hydrolysis: 2.1 s⁻¹

## O=P(O)(O)OP(=O)(O)O [Pyrophosphate]
αGlc 1-P phosphatase [1]
  hydrolysis by αGlc 1-P phosphatase (in words): not hydrolyzed

## O=P(O)(O)O[C@H]1O[C@H](CO)[C@@H](O)[C@H](O)[C@H]1O [αGlc 1-P, alpha-glucose-1-phosphate]
αGlc 1-P phosphatase [1]; [3]
  αGlc 1-P phosphatase kcat_app, hydrolysis: 40 s⁻¹
αGlc 1-P phosphatase [2]; 200 mM Fru, 20 mM α-Glc 1-P
  enhancement of α-Glc 1-P consumption rate compared to control without Fru: about 3 fold
αGlc 1-P phosphatase [2]; [5]
  kcat_app for α-Glc 1-P consumption: 40 s⁻¹
αGlc 1-P phosphatase [2]; Fru 0 mM, 20 mM αGlc 1-P
  Glc 1-P kcat_app (consumption): 40 s⁻¹
αGlc 1-P phosphatase [2]; Fru 100 mM, 20 mM αGlc 1-P
  Glc 1-P kcat_app (consumption): 73 s⁻¹
αGlc 1-P phosphatase [2]; Fru 200 mM, 20 mM αGlc 1-P
  Glc 1-P kcat_app (consumption): 137 s⁻¹
αGlc 1-P phosphatase [2]; Fru 400 mM, 20 mM αGlc 1-P
  Glc 1-P kcat_app (consumption): 162 s⁻¹
αGlc 1-P phosphatase [2]; Fru 600 mM, 20 mM αGlc 1-P
  Glc 1-P kcat_app (consumption): 189 s⁻¹
αGlc 1-P phosphatase [2]; Fru 100-600 mM
  increase of kcat_app (α-Glc 1-P) in hyperbolic dependence of the Fru concentration: about 5 fold

## O=P(O)(O)O[C@@H]1O[C@H](CO)[C@@H](O)[C@H](O)[C@H]1O [βGlc 1-P]
αGlc 1-P phosphatase [1]
  hydrolysis by αGlc 1-P phosphatase (in words): completely inactive

## phosphate
αGlc 1-P phosphatase [2]; 200 mM Fru, 20 mM α-Glc 1-P
  decrease of phosphate release rate compared to control without Fru: about 2 fold
αGlc 1-P phosphatase [2]; [4]
  suppression of phosphate release rate compared to control reaction lacking Glc: about 10 fold
αGlc 1-P phosphatase [2]; [5]
  kcat_app of phosphate formation: 4 s⁻¹
αGlc 1-P phosphatase [2]; Fru 0 mM, 20 mM αGlc 1-P
  Phosphate kcat_app (release): 40 s⁻¹
αGlc 1-P phosphatase [2]; Fru 100 mM, 20 mM αGlc 1-P
  Phosphate kcat_app (release): 21 s⁻¹
αGlc 1-P phosphatase [2]; Fru 200 mM, 20 mM αGlc 1-P
  Phosphate kcat_app (release): 18 s⁻¹
αGlc 1-P phosphatase [2]; Fru 400 mM, 20 mM αGlc 1-P
  Phosphate kcat_app (release): 14 s⁻¹
αGlc 1-P phosphatase [2]; Fru 600 mM, 20 mM αGlc 1-P
  Phosphate kcat_app (release): 13 s⁻¹
